For this test, the target named is T1, TrkB (Rattus norvegicus, UniProt Q63604).
T1 construct: PHR domain (1-498 a.a.) of Arabidopsis CRY2 (NM_100320); expressed in transfected cells; host or cells: HeLa; the other entry of the earlier key: CRY2 (Q96524, Cryptochrome-2)
Kind of test: Light-induced calcium signaling after treatment with TrkB-specific inhibitor (R-GECO imaging). In kind it is cell-based. Particulars: 100 nM K252a; HeLa cells co-transfected with TrkB-PHR-YFP and R-GECO; 488 nm light. From the text: The present inventors observed whether sub-RTK signaling was activated by light irradiation after treating a RTK-specific inhibitor in order to confirm that only RTK-specific signaling pathways are activated by light irradiation affecting downstream pathways thereof.
The present inventors used TrkB-PHR-YFP construct prepared in the example 1-1 as an example to investigate the activation of TRK signal transduction. In addition, the present inventors used R-GECO construct (Addgene, plasmid 32444; CMV-R-GECO1) to investigate whether calcium signaling among downstream signaling pathways of RTK is activated by light irradiation. Particularly, HeLa cells were co-transfected with the TrkB-PHR-YFP construct prepared in the example 1-1 and R-GECO construct and cultured in DMEM media containing 10% FBS in the condition of 37° C. and 10% CO2. The cultivated cells were treated with 100 nM of K252a known as a TrkB-specific inhibitor and images taken with a confocal microscope before and after the irradiation with light having 488 nm of wavelength were obtained and analyzed (FIG. 6). As a result, it was observed that there is no difference in the experimental group treated with K252a. On the contrary, the calcium signaling was changed according to light irradiation in the control group.

We go through one compound from US20150203837A1, “FUSION PROTEIN FOR ACTIVATING RTK SIGNAL TRANSMISSION BY MEANS OF LIGHT, AND USE THEREOF” (KOREA ADVANCED INSTITUTE OF SCIENCE AND TECHNOLOGY, priority 2012, published 2015).

T1 sequence (Q63604 with tags, fused parts or gaps): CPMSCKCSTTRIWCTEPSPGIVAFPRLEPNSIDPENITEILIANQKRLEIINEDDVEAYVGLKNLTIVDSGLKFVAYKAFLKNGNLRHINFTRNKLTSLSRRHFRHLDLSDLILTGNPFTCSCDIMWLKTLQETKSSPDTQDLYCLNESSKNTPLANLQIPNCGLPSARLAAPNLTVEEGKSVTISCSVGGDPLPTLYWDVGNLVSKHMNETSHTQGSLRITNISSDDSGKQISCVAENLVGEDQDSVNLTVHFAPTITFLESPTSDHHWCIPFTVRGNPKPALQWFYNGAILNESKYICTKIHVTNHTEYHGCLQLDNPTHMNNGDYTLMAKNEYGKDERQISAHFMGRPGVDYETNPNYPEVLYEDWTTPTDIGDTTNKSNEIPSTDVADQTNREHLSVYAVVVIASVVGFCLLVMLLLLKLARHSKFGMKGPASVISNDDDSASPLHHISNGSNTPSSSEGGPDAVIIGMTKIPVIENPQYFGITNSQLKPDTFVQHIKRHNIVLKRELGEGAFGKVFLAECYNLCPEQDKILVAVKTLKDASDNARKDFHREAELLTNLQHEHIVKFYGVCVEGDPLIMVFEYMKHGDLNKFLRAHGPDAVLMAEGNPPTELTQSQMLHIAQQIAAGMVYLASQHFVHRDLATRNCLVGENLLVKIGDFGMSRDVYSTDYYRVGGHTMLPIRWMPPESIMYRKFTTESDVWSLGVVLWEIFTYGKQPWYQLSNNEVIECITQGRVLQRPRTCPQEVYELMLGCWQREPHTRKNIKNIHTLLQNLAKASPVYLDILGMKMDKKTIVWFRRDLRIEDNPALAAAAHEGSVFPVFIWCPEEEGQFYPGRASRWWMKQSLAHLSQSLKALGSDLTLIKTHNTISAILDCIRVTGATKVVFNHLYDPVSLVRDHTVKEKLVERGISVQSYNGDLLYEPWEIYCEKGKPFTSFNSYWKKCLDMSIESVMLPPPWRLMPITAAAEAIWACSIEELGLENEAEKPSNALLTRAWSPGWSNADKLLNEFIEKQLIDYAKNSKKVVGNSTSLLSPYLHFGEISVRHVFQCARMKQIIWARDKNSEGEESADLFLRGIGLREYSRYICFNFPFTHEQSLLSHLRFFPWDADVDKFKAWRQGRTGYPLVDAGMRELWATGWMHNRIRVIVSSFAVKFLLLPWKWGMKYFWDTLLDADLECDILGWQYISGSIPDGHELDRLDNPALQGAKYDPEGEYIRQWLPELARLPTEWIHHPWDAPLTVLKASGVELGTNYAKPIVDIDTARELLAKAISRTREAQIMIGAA

As to `COC(=O)[C@@]1(O)C[C@H]2O[C@]1(C)n1c3ccccc3c3c4c(c5c6ccccc6n2c5c31)C(=O)NC4` [K252a], the “change of calcium signaling according to light irradiation” value is “no difference”.
